Results: ChEMBL document CHEMBL1140183, “Bornyl- and isobornyl-Delta8-tetrahydrocannabinols: a novel class of cannabinergic ligands” (J Med Chem, 2008)

Assays:
Cannabinoid receptor 1 = Cannabinoid receptor 1 (Rattus norvegicus, UniProt P20272); test: Displacement of [3H]CP-55940 from CB1 receptor in rat brain synaptosome membrane; format: cell membranes
Cannabinoid receptor 2 = Cannabinoid receptor 2 (Mus musculus, UniProt P47936); test: Displacement of [3H]CP-55940 from CB2 receptor in mouse spleen membrane; format: cell membranes
Cannabinoid receptor 2, sequence (P47936 whole entry): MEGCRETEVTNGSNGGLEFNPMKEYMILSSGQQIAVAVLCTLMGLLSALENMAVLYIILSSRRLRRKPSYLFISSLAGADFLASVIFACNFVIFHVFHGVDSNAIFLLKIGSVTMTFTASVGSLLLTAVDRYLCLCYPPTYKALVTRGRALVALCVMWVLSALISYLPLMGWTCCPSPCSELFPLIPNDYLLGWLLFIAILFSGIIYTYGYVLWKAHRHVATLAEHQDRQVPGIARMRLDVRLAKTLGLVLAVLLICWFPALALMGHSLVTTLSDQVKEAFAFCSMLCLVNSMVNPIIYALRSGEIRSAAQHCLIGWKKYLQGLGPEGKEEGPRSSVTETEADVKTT

Cannabinoid receptor 1, sequence (P20272 whole entry): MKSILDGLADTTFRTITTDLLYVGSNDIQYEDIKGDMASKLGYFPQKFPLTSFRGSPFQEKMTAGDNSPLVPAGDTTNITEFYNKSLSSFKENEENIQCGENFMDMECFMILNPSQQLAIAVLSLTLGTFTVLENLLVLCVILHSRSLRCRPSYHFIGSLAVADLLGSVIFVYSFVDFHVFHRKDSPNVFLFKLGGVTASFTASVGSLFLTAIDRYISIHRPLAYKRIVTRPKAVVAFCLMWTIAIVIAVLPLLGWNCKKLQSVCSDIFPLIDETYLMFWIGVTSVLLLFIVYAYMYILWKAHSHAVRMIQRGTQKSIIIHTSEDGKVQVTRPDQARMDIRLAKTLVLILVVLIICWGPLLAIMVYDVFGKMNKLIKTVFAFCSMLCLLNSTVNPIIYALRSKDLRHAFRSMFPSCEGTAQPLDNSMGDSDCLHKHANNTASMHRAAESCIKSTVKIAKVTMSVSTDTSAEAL

SMILES	Ki (Cannabinoid receptor 1)	Ki (Cannabinoid receptor 2)
CC1=CC[C@@H]2[C@@H](C1)c1c(O)cc([C@@H]3C[C@@H]4CC[C@]3(C)C4(C)C)cc1OC2(C)C	60.2 nM	6.1 nM
CC1=CC[C@@H]2[C@@H](C1)c1c(ccc(C[C@@H]3C[C@@H]4CC[C@]3(C)C4(C)C)c1O)OC2(C)C	49 nM	49.5 nM
CC1=CC[C@@H]2[C@@H](C1)c1c(O)cc([C@H]3C[C@@H]4CC[C@]3(C)C4(C)C)cc1OC2(C)C	8.9 nM	7.4 nM
CC1=CC[C@@H]2[C@@H](C1)c1c(ccc(C[C@H]3C[C@@H]4CC[C@]3(C)C4(C)C)c1O)OC2(C)C	32.7 nM	30.5 nM
